The record followed here is patent US20210047297A1, “4-(3-AMINO-6-FLUORO-1H-INDAZOL-5-YL)-1,2,6-TRIMETHYL-1,4-DIHYDROPYRIDINE-3,5-DIC ARBONITRILE COMPOUNDS FOR TREATING HYPERPROLIFERATIVE DISORDERS” (Bayer Pharma Aktiengesellschaft, priority 2018, published 2021).

For this test, the target named is T1, GST-AMPKα2/ß1/γ1 complex (full-length human AMPKα2) (Homo sapiens, UniProt P54619+P54646+Q9Y478).
T1 construct: purchased Carna Biosciences 02-114; host or cells: baculovirus expression system
T1 sequence (P54646 whole entry): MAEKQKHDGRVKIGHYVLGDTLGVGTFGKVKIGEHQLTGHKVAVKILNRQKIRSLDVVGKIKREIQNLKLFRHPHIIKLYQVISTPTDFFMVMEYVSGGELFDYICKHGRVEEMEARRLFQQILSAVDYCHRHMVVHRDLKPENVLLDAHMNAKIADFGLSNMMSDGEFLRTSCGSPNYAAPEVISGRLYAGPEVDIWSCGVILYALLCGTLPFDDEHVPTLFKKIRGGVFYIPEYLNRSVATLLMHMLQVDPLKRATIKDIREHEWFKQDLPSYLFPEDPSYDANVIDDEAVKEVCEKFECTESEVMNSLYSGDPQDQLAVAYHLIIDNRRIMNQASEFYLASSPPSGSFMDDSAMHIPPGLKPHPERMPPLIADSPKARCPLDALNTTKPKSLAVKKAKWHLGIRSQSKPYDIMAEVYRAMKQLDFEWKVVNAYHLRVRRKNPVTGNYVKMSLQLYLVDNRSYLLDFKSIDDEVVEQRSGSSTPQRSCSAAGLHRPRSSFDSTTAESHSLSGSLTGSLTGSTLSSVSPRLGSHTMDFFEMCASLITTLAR
T1 sequence (Q9Y478 whole entry partner): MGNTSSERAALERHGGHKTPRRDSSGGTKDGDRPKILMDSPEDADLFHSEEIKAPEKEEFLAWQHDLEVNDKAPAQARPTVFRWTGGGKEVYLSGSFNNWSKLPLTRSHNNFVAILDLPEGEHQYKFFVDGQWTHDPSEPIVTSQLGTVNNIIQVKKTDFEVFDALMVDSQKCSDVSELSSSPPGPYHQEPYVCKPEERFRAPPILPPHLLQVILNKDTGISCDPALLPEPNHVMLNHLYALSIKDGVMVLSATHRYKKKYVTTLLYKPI
T1 sequence (P54619 whole entry partner): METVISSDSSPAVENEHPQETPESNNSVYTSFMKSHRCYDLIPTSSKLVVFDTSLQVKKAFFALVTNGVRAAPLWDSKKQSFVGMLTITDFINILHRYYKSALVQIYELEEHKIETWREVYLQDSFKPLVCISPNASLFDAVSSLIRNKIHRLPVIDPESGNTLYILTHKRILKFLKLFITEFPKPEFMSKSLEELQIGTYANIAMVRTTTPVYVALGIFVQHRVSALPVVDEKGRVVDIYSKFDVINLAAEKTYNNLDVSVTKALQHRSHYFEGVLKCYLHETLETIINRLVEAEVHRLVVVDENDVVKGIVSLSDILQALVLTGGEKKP
Put plainly: AMPK high ATP assay (TR-FRET-based AMPK activity inhibition assay). The format is biochemical. The conditions noted are these: ATP concentration of 1 mM; median; read-out: AMPK high ATP assay IC50 [mol/l] (median). How it is done:
AMPK inhibitory activity of compounds of the present invention at an ATP concentration of 1 mM was quantified employing the TR-FRET-based AMPK activity inhibition assay as described in the following paragraphs.
Recombinant fusion protein of N-terminal Glutathion-S-Transferase (GST) and full-length human AMPKα2 [1-552(end) amino acids of accession number NP_006243.2] co-expressed with GST-PRKAB1 [1-270(end) amino acids of accession number NP_006244.2] and PRKAG1 [1-331(end) amino acids of accession number NP_002724.1] using a baculovirus expression system, purified as GST-AMPKα2/ß1/γ1 complex by using glutathione sepharose chromatography, activated with His-tagged CaMKK1 and subsequently purified by using glutathione sepharose chromatography, was purchased from Carna Biosciences (product number 02-114) and used as kinase. As substrate for the kinase reaction biotinylated peptide biotin-Ahx-HMRSAMSFAEPG (C-terminus in amide form) was used which can be purchased e.g. form the company Biosyntan (Berlin-Buch, Germany). For the assay 50 nl of a 100 fold concentrated solution of the test compound in DMSO was pipetted into either a black low volume 384 well microtiter plate or a black 1536 well microtiter plate (both Greiner Bio-One, Frickenhausen, Germany), 2 μl of a solution of GST-AMPKα2/ß1/γ1 in aqueous assay buffer [50 mM Hepes pH 7.5, 10 mM MgCl2, 5 mM β-glycerophosphate, 2.5 mM dithiothreitol (DTT), 0.5 mM EGTA, 0.01% (w/v) bovine γ-globulin (Sigma-Aldrich, #G5009), 0.01% (v/v) Triton X-100 (Sigma-Aldrich, #T9284)] were added and the mixture was incubated for 15 min at 22° C. to allow pre-binding of the test compounds to the enzyme before the start of the kinase reaction. Then the kinase reaction was started by the addition of 3 μl of a solution of adenosine-tri-phosphate (ATP, 1.67 mM=>final conc. in the 5 μl assay volume is 1 mM), adenosine-mono-phosphate (AMP, 3.33 μM=>final conc. in the 5 μl assay volume is 2 μM), and substrate (0.83 μM=>final conc. in the 5 μl assay volume is 0.5 μM) in assay buffer and the resulting mixture was incubated for a reaction time of 30 min at 22° C. The concentration of GST-AMPK α2/ß1/γ1 was adjusted depending of the activity of the enzyme lot and was chosen appropriate to have the assay in the linear range, a typical concentration was 0.08 nM. The reaction was stopped by the addition of 3 μl of a solution of TR-FRET detection reagents (0.2 μM streptavidine-XL665 [Cisbio Bioassays, Codolet, France] and 3.33 nM anti-phosho-Serine antibody [Merck Millipore, “STK antibody”, cat. #35-002] and 3.33 nM anti mouse IgG-Tb cryptate, a Terbium-cryptate labelled anti-mouse IgG antibody [Cisbio Bioassays, Codolet, France] in an aqueous EDTA-solution (166.7 mM EDTA, 0.06 (w/v) bovine serum albumin in 50 mM HEPES pH 7.5).
The resulting mixture was incubated 1 h at 22° C. to allow the formation of complex between the phosphorylated biotinylated peptide and the detection reagents. Subsequently the amount of phosphorylated substrate was evaluated by measurement of the resonance energy transfer from the Tb-cryptate to the streptavidine-XL665. Therefore, the fluorescence emissions at 620 nm and 665 nm after excitation at 350 nm was measured in a TR-FRET reader, e.g. a Pherastar FS (BMG Labtechnologies, Offenburg, Germany) or a Viewlux (Perkin-Elmer). The ratio of the emissions at 665 nm and at […] was taken as the measure for the amount of phosphorylated substrate. The data were normalised (enzyme reaction without inhibitor=0 inhibition, all other assay components but no enzyme=100% inhibition).
Regarding `CC1=C(C#N)C(c2cc3c(NC(=O)c4ccc(OCCN5CCCC5)cc4Cl)n[nH]c3c(C)c2F)C(C#N)=C(C)N1C` [Example 20, 2-chloro-N-[5-(3,5-dicyano-1,2,6-trimethyl-1,4-dihydropyridin-4-yl)-6-fluoro-7-methyl-1H-indazol-3-yl]-4-[2-(pyrrolidin-1-yl)ethoxy]benzamide], the IC50 was 0.66 nM.
For `COC(=O)C12C3C4C1C1C2C3C41C(=O)Nc1n[nH]c2c(C)c(F)c(C3C(C#N)=C(C)N(C)C(C)=C3C#N)cc12` (centres unmarked) [Example 22, methyl 4-{[5-(3,5-dicyano-1,2,6-trimethyl-1,4-dihydropyridin-4-yl)-6-fluoro-7-methyl-1H-indazol-3-yl]carbamoyl}cubane-1-carboxylate] the value was 65.6 nM.
For `CC1=C(C#N)C(c2cc3c(NC(=O)C45C6C7C4C4C5C6C74C(=O)N4CCC4)n[nH]c3c(C)c2F)C(C#N)=C(C)N1C` (centres unmarked) [Example 23, 4-(azetidine-1-carbonyl)-N-[5-(3,5-dicyano-1,2,6-trimethyl-1,4-dihydropyridin-4-yl)-6-fluoro-7-methyl-1H-indazol-3-yl]cubane-1-carboxamide] the value was 105 nM; for `CC1=C(C#N)C(c2cc3c(NC(=O)C45C6C7C4C4C5C6C74C(=O)N4CCN(C)CC4)n[nH]c3c(C)c2F)C(C#N)=C(C)N1C` (centres unmarked) [Example 24, N-[5-(3,5-dicyano-1,2,6-trimethyl-1,4-dihydropyridin-4-yl)-6-fluoro-7-methyl-1H-indazol-3-yl]-4-(4-methylpiperazine-1-carbonyl)cubane-1-carboxamide], 59.7 nM; for `C=Cc1c(F)c(C2C(C#N)=C(C)N(C)C(C)=C2C#N)cc2c(NC(=O)c3cc(C)nn3CC)n[nH]c12` [Example 25, N-[5-(3,5-dicyano-1,2,6-trimethyl-1,4-dihydropyridin-4-yl)-7-ethenyl-6-fluoro-1H-indazol-3-yl]-1-ethyl-3-methyl-1H-pyrazole-5-carboxamide], 152 nM.
The figure for `CCc1c(F)c(C2C(C#N)=C(C)N(C)C(C)=C2C#N)cc2c(NC(=O)c3c(F)cccc3F)n[nH]c12` [Example 26, N-[5-(3,5-dicyano-1,2,6-trimethyl-1,4-dihydropyridin-4-yl)-7-ethyl-6-fluoro-1H-indazol-3-yl]-2,6-difluorobenzamide] is 38.1 nM; for `CCc1ccccc1C(=O)Nc1n[nH]c2c(CC)c(F)c(C3C(C#N)=C(C)N(C)C(C)=C3C#N)cc12` [Example 27, N-[5-(3,5-dicyano-1,2,6-trimethyl-1,4-dihydropyridin-4-yl)-7-ethyl-6-fluoro-1H-indazol-3-yl]-2-ethylbenzamide] it is 59.5 nM.
As for `CCc1c(F)c(C2C(C#N)=C(C)N(C)C(C)=C2C#N)cc2c(NC(=O)c3ccnn3C(C)C)n[nH]c12` [Example 28, N-[5-(3,5-dicyano-1,2,6-trimethyl-1,4-dihydropyridin-4-yl)-7-ethyl-6-fluoro-1H-indazol-3-yl]-1-(propan-2-yl)-1H-pyrazole-5-carboxamide], the IC50 amounted to 138 nM.
For the compound `CCc1c(F)c(C2C(C#N)=C(C)N(C)C(C)=C2C#N)cc2c(NC(=O)c3c(Cl)cnn3C)n[nH]c12` [Example 29, 4-chloro-N-[5-(3,5-dicyano-1,2,6-trimethyl-1,4-dihydropyridin-4-yl)-7-ethyl-6-fluoro-1H-indazol-3-yl]-1-methyl-1H-pyrazole-5-carboxamide], the IC50 was 122 nM.
Regarding `CCc1c(F)c(C2C(C#N)=C(C)N(C)C(C)=C2C#N)cc2c(NC(=O)c3cc(C)nn3CC)n[nH]c12` [Example 30, N-[5-(3,5-dicyano-1,2,6-trimethyl-1,4-dihydropyridin-4-yl)-7-ethyl-6-fluoro-1H-indazol-3-yl]-1-ethyl-3-methyl-1H-pyrazole-5-carboxamide], the IC50 was determined as 68.6 nM.
For `CCc1c(F)c(C2C(C#N)=C(C)N(C)C(C)=C2C#N)cc2c(NC(=O)c3ccccc3Cl)n[nH]c12` [Example 31, 2-chloro-N-[5-(3,5-dicyano-1,2,6-trimethyl-1,4-dihydropyridin-4-yl)-7-ethyl-6-fluoro-1H-indazol-3-yl]benzamide], the IC50 was 71.5 nM.
The figure for `CC1=C(C#N)C(c2cc3c(NC(=O)c4ccccc4Cl)n[nH]c3c(C(F)(F)F)c2F)C(C#N)=C(C)N1C` [Example 32, 2-chloro-N-[5-(3,5-dicyano-1,2,6-trimethyl-1,4-dihydropyridin-4-yl)-6-fluoro-7-(trifluoromethyl)-1H-indazol-3-yl]benzamide] is 10.5 nM.
For `CCn1nc(C)cc1C(=O)Nc1n[nH]c2c(C(F)(F)F)c(F)c(C3C(C#N)=C(C)N(C)C(C)=C3C#N)cc12` [Example 33, N-[5-(3,5-dicyano-1,2,6-trimethyl-1,4-dihydropyridin-4-yl)-6-fluoro-7-(trifluoromethyl)-1H-indazol-3-yl]-1-ethyl-3-methyl-1H-pyrazole-5-carboxamide] the value was 25 nM; for `CC1=C(C#N)C(c2ccc3[nH]nc(NC(=O)c4ccccc4)c3c2)C(C#N)=C(C)N1` [Reference Example 1, N-[5-(3,5-dicyano-2,6-dimethyl-1,4-dihydropyridin-4-yl)-1H-indazol-3-yl]benzamide, reference compound], 279 nM.
